Data as given in ChEMBL document CHEMBL4651402, “Screening of ~5500 FDA-approved drugs and clinical candidates for anti-SARS-CoV-2 activity” (2021).

Tested on: SARS-CoV-2
Assay: microbe, parasite or virus in culture
Details: Severe acute respiratory syndrome coronavirus 2, Vero C1008, 48 h

Compound | IC50 [µM] | IC50 (read-out: pIC50 (converted)) [µM]
O=c1[nH]c(=O)c(Cc2cccc(C(F)(F)F)c2)c([C@H]2CC[C@H](c3ccccc3)CC2)[nH]1 [MIRICORILANT] | > 20 | > 20
Nc1nc(Cl)nc2c1ncn2[C@@H]1C[C@H](O)[C@@H](CO)O1 | > 20 | > 20
CC1(C)OC(=O)NC1=O [DIMETHADIONE] | > 20 | > 20
CCC(O)(COC(N)=O)c1ccccc1 (stereo not given) [HYDROXYPHENAMATE] | > 20 | > 20
CCc1nc(-c2cccc(C)c2)c(-c2ccnc(NC(=O)c3ccccc3)c2)s1 [TAK-715] | > 20 | > 20
OC(CCN1CCCCC1)(c1ccccc1)C1CCCCC1 (stereo not given) [TRIHEXYPHENIDYL] | > 20 | > 20
CCC(N)C(O)c1ccc(O)c(O)c1 (stereo not given) [ETHYLNOREPINEPHRINE] | > 20 | > 20
CC(CN(C)C)CN1c2ccccc2OCOc2ccc(Cl)cc21 (stereo not given) [TRABOXOPINE] | > 20 | > 20
C[C@@H]1O[C@@H](O[C@H]2C[C@@H](O)[C@]3(CO)[C@H]4[C@H](O)C[C@]5(C)[C@@H](C6=CC(=O)OC6)CC[C@]5(O)[C@@H]4CC[C@]3(O)C2)[C@H](O)[C@H](O)[C@H]1O [OUABAIN] | > 20 | > 20
CC(C)(C)C(O)(COc1ccc(Cl)cc1)Cn1cncn1 (stereo not given) | > 20 | > 20
C[C@@H]1CC2C3CCC4=CC(=O)C=CC4(C)[C@@]3(Cl)C(Cl)CC2(C)[C@@]1(O)C(=O)CO (stereo not given in full) | > 20 | > 20
C=CCc1ccccc1OC[C@@H](O)CNC(C)C | > 20 | > 20
CN[C@@H](C)C/C=C/c1cncc(OC(C)C)c1 [ISPRONICLINE] | > 20 | > 20
COC(=O)N/N=C/c1c[n+]([O-])c2ccccc2[n+]1[O-] [CARBADOX] | > 20 | > 20
O=C(O)c1c(O)c(-c2ccccc2)nc2ccccc12 [OXYCINCHOPHEN] | > 20 | > 20
CC(C)[N+](C)(CCC(C(N)=O)(c1ccccc1)c1ccccc1)C(C)C [ISOPROPAMIDE] | > 20 | > 20
CC[C@H]1OC(=O)[C@H](C)[C@@H](O[C@H]2C[C@@](C)(OC)[C@@H](O)[C@H](C)O2)[C@H](C)[C@@H](O[C@@H]2O[C@H](C)C[C@H](N(C)C)[C@H]2O)[C@](C)(O)C[C@@H](C)C(=O)[C@H](C)[C@@H](O)[C@]1(C)O [ERYTHROMYCIN] | > 20 | > 20
CC(C)[C@](O)(c1ccc2cc(OC(F)F)c(OC(F)F)cc2c1)c1c[nH]nn1 [SEVITERONEL] | > 20 | > 20
CC(=O)SCC(Cc1ccccc1)C(=O)NCC(=O)OCc1ccccc1 (stereo not given) [RACECADOTRIL] | > 20 | > 20
O=C(O)c1ccccn1 [2-PICOLINIC ACID] | > 20 | > 20
CN1CCN(CCCN2c3ccccc3Sc3ccc(Cl)cc32)CC1 [PROCHLORPERAZINE] | > 20 | > 20
CN1CCC(=C2c3ccccc3CCc3sccc32)CC1 [PIZOTYLINE] | > 20 | > 20
C[C@H]1O[C@H](O[C@H]2[C@H](O)[C@@H](O)[C@@H](O[C@@H]([C@H](O)[C@@H](O)C=O)[C@H](O)CO)O[C@@H]2CO)[C@H](O)[C@@H](O)[C@@H]1N[C@H]1C=C(CO)[C@@H](O)[C@H](O)[C@H]1O.C[C@H]1O[C@H](O[C@H]2[C@H](O)[C@@H](O)[C@@H](O[C@H]3[C@H](O)[C@@H](O)[C@H](O)O[C@@H]3CO)O[C@@H]2CO)[C@H](O)[C@@H](O)[C@@H]1N[C@H]1C=C(CO)[C@@H](O)[C@H](O)[C@H]1O | > 20 | > 20
CC(C)CCCC(C)C1CCC2C3CC(O)[C@@]4(O)CC(O)CCC4(C)C3CCC12C (stereo not given in full) | > 20 | > 20
CC(=O)N(CC(C)C(=O)O)c1c(I)cc(I)c(N)c1I (stereo not given) [IOCETAMIC ACID] | > 20 | > 20

Compound | IC50 [µM] | IC50 (read-out: pIC50 (converted)) [µM]
O=C1CC(c2ccc(O)c(O)c2)Oc2cc(O)cc(O)c21 (stereo not given) | > 20 | > 20
C[C@]12CC[C@@H]3c4ccc(O)cc4CC[C@H]3[C@@H]1CC[C@@H]2O [ESTRADIOL] | > 20 | > 20
O[C@@H]1CO[C@H]2[C@@H]1OC[C@@H]2O [ISOSORBIDE] | > 20 | > 20
Cc1nccc2c1[nH]c1cc(O)ccc12 | > 20 | > 20
Nc1ccc(C#Cc2cnn3c(C(F)(F)F)cc(-c4ccc(C(F)(F)F)cc4)nc23)cn1 [DECOGLURANT] | > 20 | > 20
Cc1cc2c(F)c(Oc3ncnn4cc(OC[C@@H](C)O)c(C)c34)ccc2[nH]1 [BRIVANIB] | > 20 | > 20
Nc1nc(=O)c2sc(=O)n([C@@H]3O[C@H](CO)[C@@H](O)[C@H]3O)c2[nH]1 [ISATORIBINE] | > 25.1 | > 25.1
COc1ccc(CCNCC(O)COc2cccc(C)c2)cc1OC (stereo not given) [BEVANTOLOL] | > 20 | > 20
O=C(O)c1cc(/N=N/c2ccc(O)c(C(=O)O)c2)ccc1O [OLSALAZINE] | > 20 | > 20
CC(C)(C)c1cc(NC(=O)Nc2ccc(-c3cn4c(n3)sc3cc(OCCN5CCOCC5)ccc34)cc2)no1 [QUIZARTINIB] | > 20 | > 20
CCCCNc1c(C(=O)OCC)c(C)nc2c1cnn2CC [TRACAZOLATE] | > 20 | > 20
C[N+]1(C)[C@@H]2CC[C@@H]1CC(OC(=O)C(CO)c1ccccc1)C2 (stereo not given in full) | > 20 | > 20
CCCc1c(OCC(O)COc2ccc3c(=O)cc(C(=O)O)oc3c2CCC)ccc(C(C)=O)c1O (stereo not given) [FPL-55712] | > 20 | > 20
Cc1cnc(C(=O)NCCc2ccc(S(=O)(=O)NC(=O)NC3CCCCC3)cc2)cn1 [GLIPIZIDE] | > 20 | > 20
COCc1cccc(C[C@H](O)/C=C/[C@H]2[C@H](O)CC(=O)[C@@H]2CCSCCCC(=O)OC)c1 [RIVENPROST] | > 20 | > 20
CC(C)(CO)[C@@H](O)C(=O)NCCCO [DEXPANTHENOL] | > 20 | > 20
CN(C)CCCn1c2c(c3ccccc31)CCCCCC2 [IPRINDOLE] | > 20 | > 20
CCCOc1cc(N)ccc1C(=O)OCCN(CC)CC [PROPOXYCAINE] | > 20 | > 20
Cc1cn(C2C=CC(CO)O2)c(=O)[nH]c1=O (stereo not given) | > 20 | > 20
CC1NCCc2c1[nH]c1ccccc21 (stereo not given) [TETRAHYDROHARMAN] | > 20 | > 20
CO[C@@]1(NC(=O)C2SC(=C(C(N)=O)C(=O)O)S2)C(=O)N2C(C(=O)O)=C(CSc3nnnn3C)CS[C@@H]21 (stereo not given in full) [CEFOTETAN] | > 20 | > 20
NC(=O)CC[C@H](N)C(=O)O [GLUTAMINE] | > 20 | > 20
C[C@]12COC(=O)C[C@@H]1CC[C@@H]1[C@@H]2CC[C@@]2(C)[C@H]1CC[C@]2(C)O [OXANDROLONE] | > 20 | > 20
Cc1ccc([C@H]2O[C@H](CO)[C@@H](O)[C@H](O)[C@H]2O)cc1Cc1ccc(-c2ccc(F)cc2)s1 | > 20 | > 20
CC(C(O)c1ccccc1)N(C)C (racemic) | > 20 | > 20
